Results on 3 compounds are retold here after ChEMBL document CHEMBL4368907 (J Med Chem, 2019).

Structures are written as SMILES. Numbered stars: 1 amine (or outer) side, 2 acyl side, 3 side chain; on linkers, the order of the positions; unused ones are H or OH. Square brackets hold non-standard residues; d marks the D form. Peptide text beside a SMILES is read from it. * marks the point of attachment. Phe(4-CH2SO3H) = N[C@@H](Cc1ccc(CS(=O)(=O)O)cc1)C(=O)O; C18 diacid = O=C(O)CCCCCCCCCCCCCCCCC(=O)*; γGlu = O=C(O)[C@H](CCC(=O)[*:2])N[*:1]; βAsp = O=C(O)[C@H](CC(=O)[*:2])N[*:1]; NMeF = CN[C@@H](Cc1ccccc1)C(=O)O; dNMeD = CN[C@H](CC(=O)O)C(=O)O; Nle = CCCC[C@H](N)C(=O)O; AEEA = NCCOCCOCC(=O)O

In series [1] the target is T1, Cholecystokinin receptor type A (Homo sapiens, UniProt P32238).
T1 sequence (P32238 whole entry): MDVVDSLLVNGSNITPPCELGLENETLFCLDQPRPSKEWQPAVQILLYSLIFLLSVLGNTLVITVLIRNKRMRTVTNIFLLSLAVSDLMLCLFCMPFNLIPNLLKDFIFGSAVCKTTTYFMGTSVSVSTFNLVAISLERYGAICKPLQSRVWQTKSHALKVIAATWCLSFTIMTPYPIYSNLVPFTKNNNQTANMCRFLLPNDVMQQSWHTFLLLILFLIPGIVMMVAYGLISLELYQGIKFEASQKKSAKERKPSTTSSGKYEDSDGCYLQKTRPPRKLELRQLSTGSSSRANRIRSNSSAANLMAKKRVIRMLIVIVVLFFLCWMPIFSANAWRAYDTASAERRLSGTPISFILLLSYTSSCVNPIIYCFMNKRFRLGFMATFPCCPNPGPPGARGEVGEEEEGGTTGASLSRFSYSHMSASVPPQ
As to the kind of experiment: Displacement of [125I]-CCK-8 from human CCK1R expressed in human 1321N1 cell membranes after 2 hrs by SPA assay.

A short description of series [2]: Terminal half life in Ellegaard Gottingen minipig at 5 nmol/kg, iv by LC-MS/MS analysis. Type of series: ADME, organism-based, Sus scrofa. The settings on record: pig, in vivo, read-out: beta t1/2 (converted).
The subject of series [3] is Sus scrofa. In words: Anti-obesity activity in lean Landrace Yorkshire Duroc pig assessed as food intake at 30 nmol/kg, sc measured at 24 to 48 hrs post dose (reference value: 1.8 to 2.1 kg). In kind it is functional.
The nature of series [4]: Toxicity in lean Landrace Yorkshire Duroc pig at 30 nmol/kg, sc measured up to 96 hrs post dose. Type of series: organism-based, Sus scrofa. The note with it: in vivo.
Series [5] in a line: Drug level in sodium phosphate buffer treated with 1 mM (2R,5S,8S,14S,17S,20S,43S)-8-((1H-indol-3-yl)methyl)-2-(((S)-1-amino-1-oxo-3-phenylpropan-2-yl)(methyl)carbamoyl)-5,14-dibutyl-20-(carboxymethyl)-3-methyl-4,7,10,13,16,19,22,31,40,45-decaoxo-17-(4-(sulfomethyl)benzyl)-24,27,33,36-tetraoxa-3,6,9,12,15,18,21,30,39,44-decaazahenhexacontane-1,43,61-tricarboxylic acid assessed as compound formation at pH 7.4 at 37 degC after 1 to 2 weeks by UHLPC-UV analysis. In kind it is physicochemical.

Series [6] deals with Sus scrofa. In words: Anti-obesity activity in lean Landrace Yorkshire Duroc pig assessed as food intake at 30 nmol/kg, sc measured at 72 to 96 hrs post dose (reference value: 1.8 to 2.1 kg). Type of series: functional.
Series [7] has as its system Sus scrofa. In words: Anti-obesity activity in lean Landrace Yorkshire Duroc pig assessed as food intake at 30 nmol/kg, sc measured up to 24 hrs post dose (reference value: 1.8 to 2.1 kg). Type of series: functional.
The subject of series [8] is Sus scrofa. As to the kind of experiment: Anti-obesity activity in lean Landrace Yorkshire Duroc pig assessed as food intake at 30 nmol/kg, sc measured at 48 to 72 hrs post dose (reference value: 1.8 to 2.1 kg). Type of series: functional.
Series [9] in a line: Plasma concentration in lean Landrace Yorkshire Duroc pig at 30 nmol/kg, sc measured after 96 hrs post dose. Type of series: ADME, organism-based, Sus scrofa.
Series [10] concerns the target T1, Cholecystokinin receptor type A. In words: Agonist activity at human CCK1R expressed in human 1321N1 cells assessed as IP1 accumulation after 1 hr by HTRF assay. In kind it is functional, cell-based.
In the next series the target is albumin (Homo sapiens, UniProt P02768). As to the kind of experiment: Binding affinity to human serum albumin at 500 nM after 2 hrs by LC-MS analysis. In kind it is ADME. The settings on record: read-out: PB (converted).
Chain of albumin (P02768 whole entry): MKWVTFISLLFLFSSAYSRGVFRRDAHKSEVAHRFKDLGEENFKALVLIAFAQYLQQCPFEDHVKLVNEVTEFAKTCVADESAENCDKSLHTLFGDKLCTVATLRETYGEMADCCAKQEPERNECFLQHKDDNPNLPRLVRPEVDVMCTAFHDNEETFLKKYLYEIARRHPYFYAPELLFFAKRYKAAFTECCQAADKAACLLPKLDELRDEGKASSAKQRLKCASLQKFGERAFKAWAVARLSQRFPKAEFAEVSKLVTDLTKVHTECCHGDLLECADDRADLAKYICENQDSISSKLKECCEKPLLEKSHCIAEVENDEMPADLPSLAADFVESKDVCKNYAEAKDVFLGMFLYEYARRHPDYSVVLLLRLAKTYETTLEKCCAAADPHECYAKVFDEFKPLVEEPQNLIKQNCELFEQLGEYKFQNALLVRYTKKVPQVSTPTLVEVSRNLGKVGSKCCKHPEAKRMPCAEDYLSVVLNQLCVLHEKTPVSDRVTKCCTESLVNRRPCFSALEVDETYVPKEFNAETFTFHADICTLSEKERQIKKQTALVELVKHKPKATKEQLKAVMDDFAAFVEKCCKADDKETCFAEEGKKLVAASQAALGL
Series [11] can be described thus: Drug metabolism in sodium phosphate buffer assessed as (2R,5S,8S,14S,17S,21S,44S)-8-((1H-indol-3-yl)methyl)-2-(((S)-1-amino-1-oxo-3-phenylpropan-2-yl)(methyl)carbamoyl)-5,14-dibutyl-3-methyl-4,7,10,13,16,19,23,32,41,46-decaoxo-17-(4-(sulfomethyl)benzyl)-25,28,34,37-tetraoxa-3,6,9,12,15,18,22,31,40,45-decaazadohexacontane-1,21,44,62-tetracarboxylic acid formation at 1 mM at pH 7.4 at 37 degC after 1 to 2 weeks by UHLPC-UV analysis.

The nature of series [12]: Protein binding in Ellegaard Gottingen minipig plasma at 500 nM after 2 hrs by LC-MS analysis. In kind it is ADME, cell-free, Sus scrofa. The settings on record: pig, read-out: PPB (converted).
Series [13] can be described thus: Drug metabolism in Ellegaard Gottingen minipig plasma assessed as C18d-gammaGlu-(OEG)2-Asp-Phe(4sm)-Nle-Gly-OH peptide metabolite formation at 5 nmol/kg, iv administered as single dose by LC-MS/MS analysis. Type of series: ADME, organism-based, Sus scrofa. The settings on record: pig, in vivo.
The nature of series [14]: Drug metabolism in Ellegaard Gottingen minipig plasma assessed as C18d-gammaGlu-(OEG)2-Asp-Phe(4sm)-OH peptide metabolite formation at 5 nmol/kg, iv administered as single dose by LC-MS/MS analysis. The settings on record: pig, in vivo. Type of series: ADME, organism-based, Sus scrofa.
A short description of series [15]: Drug metabolism in Ellegaard Gottingen minipig plasma assessed as C18d-gammaGlu-(OEG)2-Asp-Phe(4sm)-Nle-Gly-Trp-Nle-DMeAspOH peptide metabolite formation at 5 nmol/kg, iv administered as single dose by LC-MS/MS analysis. In kind it is ADME, organism-based, Sus scrofa. The settings on record: pig, in vivo.
Series [16] can be described thus: Chemical stability of the compound in sodium phosphate buffer assessed as loss of purity 1 mM at pH 7.4 at 37 degC after 2 weeks by UHLPC-UV analysis. Type of series: physicochemical. The note with it: read-out: Drug degradation.
Series [17] can be described thus: Chemical stability of the compound in sodium phosphate buffer assessed as loss of purity 1 mM at pH 7.4 at 37 degC after 1 week by UHLPC-UV analysis. Type of series: physicochemical. The settings on record: read-out: Drug degradation.
Series [18] is described as follows: Chemical stability of the compound in sodium phosphate buffer assessed as loss of purity 0.5 mM at pH 7.4 at 37 degC after 1 week by UHLPC-UV analysis. Type of series: physicochemical. The note with it: read-out: Drug degradation.
The nature of series [19]: Chemical stability of the compound in sodium phosphate buffer assessed as purity 0.5 mM at pH 2.2 at 37 degC after 1 week by UHLPC-UV analysis. In kind it is physicochemical. The note with it: read-out: Stability.

`CCCC[C@H](NC(=O)[C@H](Cc1ccc(CS(=O)(=O)O)cc1)NC(=O)C[C@H](NC(=O)COCCOCCNC(=O)COCCOCCNC(=O)CC[C@H](NC(=O)CCCCCCCCCCCCCCCCC(=O)O)C(=O)O)C(=O)O)C(=O)NCC(=O)N[C@@H](Cc1c[nH]c2ccccc12)C(=O)N[C@@H](CCCC)C(=O)N(C)[C@H](CC(=O)O)C(=O)N(C)[C@@H](Cc1ccccc1)C(N)=O` ({C18 diacid-γGlu-AEEA-AEEA-βAsp}-[Phe(4-CH2SO3H)][Nle]GW[Nle][dNMeD][NMeF]-NH2) gave a 50% inhibitory concentration (IC50) in series [1] of 0.0794 nM. For the same compound, the half-life in [2] was 106 h. For the same compound, the Activity was 1.5 kg in the series on Sus scrofa [3]; “Non-Toxic” in series [4]; 1.7 kg in the series with Sus scrofa [6]; 1.1 kg in the series on Sus scrofa [7]; 1.8 kg with Sus scrofa [8]. The Drug uptake result in [5] is “Active”. Further, in [9], the concentration at 96 h was 88.7 nM. Further, the concentration giving a half-maximal response (EC50) in [10] was 0.316 nM.

Regarding `CCCC[C@H](NC(=O)[C@H](Cc1ccc(CS(=O)(=O)O)cc1)NC(=O)[C@H](CC(=O)O)NC(=O)COCCOCCNC(=O)COCCOCCNC(=O)CC[C@H](NC(=O)CCCCCCCCCCCCCCCCC(=O)O)C(=O)O)C(=O)NCC(=O)N[C@@H](Cc1c[nH]c2ccccc12)C(=O)N[C@@H](CCCC)C(=O)N(C)[C@H](CC(=O)O)C(=O)N(C)[C@@H](Cc1ccccc1)C(N)=O` ({C18 diacid-γGlu-AEEA-AEEA}-D[Phe(4-CH2SO3H)][Nle]GW[Nle][dNMeD][NMeF]-NH2), in series [1], the half-maximal inhibitory concentration (IC50) was 0.0525 nM. Besides, the fraction unbound at 2 h, 0.5 µM (on albumin; in series [12]) was 0.003 in each case. Moreover, the Drug metabolism entry is recorded as “Metabolite detected” in series [11], “Metabolite_Detected” in [13], “Metabolite_Detected” in series [14] and “Metabolite_Detected” in series [15]. For the same compound, the Activity was 1.1 kg in the series on Sus scrofa [3]; “Non-Toxic” in [4]; 1.9 kg in the series with Sus scrofa [6]; 1 kg with Sus scrofa [7]; 1.5 kg in the series on Sus scrofa [8]. The degraded at 336 h, 1000 µM in [16] turned out to be 2.2%. Moreover, the degraded at 168 h, 1000 µM in series [17] was determined as 1.3%. Besides, the concentration at 96 h in series [9] turned out to be 84.9 nM. Also, in series [10], the concentration giving a half-maximal response (EC50) was 0.251 nM.

In the case of `CCCC[C@H](NC(=O)[C@H](Cc1ccc(OS(=O)(=O)O)cc1)NC(=O)[C@H](CC(=O)O)NC(=O)COCCOCCNC(=O)COCCOCCNC(=O)CC[C@H](NC(=O)CCCCCCCCCCCCCCCCC(=O)O)C(=O)O)C(=O)NCC(=O)N[C@@H](Cc1c[nH]c2ccccc12)C(=O)N[C@@H](CCCC)C(=O)N[C@@H](CC(=O)O)C(=O)N[C@@H](Cc1ccccc1)C(N)=O`, the degraded at 168 h, 500 µM in series [18] was 0.8%. Besides, in series [19], the remaining at 168 h, 500 µM was found to be 22%.
